Publication PMC12055641, “The Study of Antistaphylococcal Potential of Omiganan and Retro-Omiganan Under Flow Conditions” (Probiotics and Antimicrobial Proteins, 2024)
No end group written: not given here.

How the values were obtained:
[1] = system: human keratinocytes (HaCaT); assay type: cell-based; details: 24 h
Method: To evaluate the cytotoxicity of the peptides (IC50), the classic MTT assay on 96-well plates was performed for human keratinocytes (HaCaT) which were acquired from the ATCC. The assay utilizes colorimetric determination of the cell metabolic activity, and the color intensity reflects the number of live cells that can be measured spectrophotometrically. […] DMSO was added to the control cells at a final concentration of 1.0% (v/v), which was related to the maximum concentration of the solvent compounds used in the experiment. After 24 h of incubation at 37 °C (humidified 5% CO2 incubator) with the peptides, a medium containing 1 mg/mL of MTT was added to the wells up to a final concentration of 0.5 mg/mL. Subsequently, the plates were incubated at 37 °C for 4 h. Then, the medium was aspirated, and the formazan product was solubilized with DMSO. The background absorbance at 630 nm was subtracted from that at 570 nm for each well (Epoch, BioTek Instruments, USA). Six replicates were conducted for each concentration. All experiments were repeated at least twice and the resulting IC50 values were calculated with GraFit 7 software (v. 7.0, Erithacus, Berkley, CA, USA).

S. aureus ATCC 6538 = details: ATCC 6538, reference strain
[2] = system: S. aureus ATCC 6538 biofilm; details: ATCC 6538, reference strain
[3] = system: S. aureus ATCC 12598 biofilm; details: ATCC 12598, reference strain
Description: (§1) Clinical S. aureus strains were collected from patients with atopic dermatitis during their visits to the Outpatient Clinic and hospitalization in the Department of Dermatology, Venereology and Allergology at Medical University of Gdańsk (following the approval from the ethics committee, Approval Number NKBBN/242–477/2014). Reference strains of S. aureus ATCC 25923, S. aureus ATCC 33591, S. aureus ATCC 9144, and S. aureus ATCC 12598 were obtained from the American Type Culture Collection. All the strains were stored at − 80 °C in Roti®-Store cryo vials (Carl Roth GmbH, Karlsruhe, Germany) and before the tests were transferred into fresh Mueller–Hinton Medium (BioMaxima, Lublin, Poland) and incubated for 24 h at 37 °C. Subsequently, each bacterial inoculum was seeded on Mueller–Hinton agar plates (BioMaxima) and incubated again for 24 h. The cultures prepared in this way were used in further antimicrobial assays. Minimum inhibitory concentrations (MICs) were determined according to the Clinical and Laboratory Standards Institute recommendations. […] The experiments were conducted on 96-well microtiter plates, with a final volume of 100 μL. Additionally, in the case of daptomycin, the medium was supplemented with Ca^2+ (50 mg/L). Cell densities were adjusted spectrophotometrically (Multiskan™ GO Microplate Spectrophotometer, Thermo Scientific) at 600 nm. The MICs were taken as the lowest drug concentration at which a visible growth of the microorganisms was inhibited. Minimum biofilm eliminating concentrations (MBECs) were determined on 96-well flat-bottomed microtiter polystyrene plates with resazurin (7-hydroxy-3H-phenoxazin-3-one 10-oxide sodium salt) as a cell viability reagent. To do this, the plates were filled with 100 μL of the initial inoculums of bacteria (0.5 × 10^7 CFU/mL) in the Mueller–Hinton broth and incubated for 24 h at 37 °C. […] After 24 h of incubation, 20 μL of resazurin (4 mg/mL) was added to each well and the MBEC values were read. Minimum biofilm inhibitory concentrations (MBICs) were also determined on 96-well flat-bottomed microtiter polystyrene plates as described previously. To do this, 50 μL of the compounds in the concentration range, diluted MHB, were prepared. Subsequently, the 50 μL of the staphylococcal inoculums were added to reach the same density of bacteria as that in the MBEC assay. After 24 h of incubation at 37 °C, the wells were rinsed three times with PBS and the fresh medium (100 μL) with resazurin (0.6 mg/mL) was added. Then, after 1 h of incubation, MBICs were read. […] All experiments were conducted in triplicate.

[4] = system: S. aureus clinical strain 030N
Description: as §1

[5] = system: S. aureus clinical strain 009S
Description: as §1

[6] = system: S. aureus clinical strain 015N (MRSA); details: 24 h
Description: as §1

[7] = system: S. aureus ATCC 9144 biofilm; details: ATCC 9144, reference strain
Description: as §1

[8] = system: S. aureus ATCC 25923 biofilm; details: ATCC 25923, reference strain
Description: as §1

[9] = system: S. aureus clinical strain 015N (MRSA) biofilm; details: clinical strain 015N biofilm, 24 h
Description: as §1

[10] = system: S. aureus clinical strain 004N (MRSA); details: 24 h
Description: as §1

[11] = system: S. aureus clinical strain 060S
Description: as §1

[12] = system: S. aureus ATCC 33591 (MRSA); details: ATCC 33591, 24 h
Description: as §1

[13] = system: S. aureus clinical strain 031S biofilm
Description: as §1

[14] = system: S. aureus clinical strain 004N (MRSA) biofilm; details: clinical strain 004N biofilm, 24 h
Description: as §1

[15] = system: S. aureus clinical strain 031S
Description: as §1

[16] = system: S. aureus clinical strain 005S
Description: as §1

[17] = system: S. aureus clinical strain 005S biofilm
Description: as §1

S. aureus ATCC 9144 = details: ATCC 9144, reference strain
Description: as §1

[18] = system: S. aureus clinical strain 043SC (MRSA); details: 24 h
Description: as §1

[19] = system: S. aureus clinical strain 051N (MRSA) biofilm; details: clinical strain 051N biofilm, 24 h
Description: as §1

[20] = system: S. aureus clinical strain 009S biofilm
Description: as §1

S. aureus ATCC 25923 = details: ATCC 25923, reference strain
Description: as §1

S. aureus ATCC 12598 = details: ATCC 12598, reference strain
Description: as §1

[21] = system: S. aureus clinical strain 060S biofilm
Description: as §1

[22] = system: S. aureus clinical strain 043SC (MRSA) biofilm; details: clinical strain 043SC biofilm, 24 h
Description: as §1

[23] = system: biofilm of reference and clinical strains of staphylococci (S. aureus); details: for mean MBIC (initial values): average over 14 strains, polystyrene 96-well plates, not corrected
Description: as §1

[24] = system: S. aureus clinical strain 051N (MRSA); details: 24 h
Description: as §1

[25] = system: S. aureus ATCC 33591 (MRSA) biofilm; details: ATCC 33591, 24 h
Description: as §1

[26] = system: S. aureus clinical strain 030N biofilm
Description: as §1

[27] = system: reference and clinical strains of staphylococci (S. aureus); details: 24 h
Description: as §1

[28] = system: S. aureus ATCC 6538 biofilm; details: ATCC 6538, reference strain; remark: listed apart in the source

ILRWPWWPWRRK-NH2 [Omiganan Cl^−]
IC50 [1]: 63.99 µg/mL | MIC (S. aureus ATCC 6538): 8 µg/mL | MBEC [2]: 32 µg/mL | MBEC [3]: 64 µg/mL | MBIC [3]: 32 µg/mL | MIC [4]: 16 µg/mL | MIC [5]: 0.5 µg/mL | MIC [6]: 16 µg/mL | MBEC [7]: 32 µg/mL | MBIC [7]: 16 µg/mL | MBEC [8]: 64 µg/mL | MBIC [8]: 32 µg/mL | MBEC [9]: 64 µg/mL | MBIC [9]: 16 µg/mL | MIC [10]: 8 µg/mL | MIC [11]: 1 µg/mL | MIC [12]: 16 µg/mL | MBEC [13]: 16 µg/mL | MBEC [14]: 64 µg/mL | MBIC [14]: 16 µg/mL | MIC [15]: 1 µg/mL | MIC [16]: 1 µg/mL | MBEC [17]: 32 µg/mL | MBIC [17]: 1 µg/mL | MIC (S. aureus ATCC 9144): 4 µg/mL | MIC [18]: 8 µg/mL | MBEC [19]: 64 µg/mL | MBIC [19]: 32 µg/mL | MBEC [20]: 32 µg/mL | MBIC [20]: 1 µg/mL | MIC (S. aureus ATCC 25923): 16 µg/mL | MIC (S. aureus ATCC 12598): 8 µg/mL | MBEC [21]: 16 µg/mL | MBIC [21]: 2 µg/mL | MBEC [22]: 32 µg/mL | MBIC [22]: 16 µg/mL | mean MBEC (corrected values) ([23]; 24 h): 38.86 µg/mL | mean MBEC (initial values) ([23]; 24 h): 45.71 µg/mL | mean MBIC (initial values) [23]: 17.46 µg/mL | mean MBIC (corrected values) ([23]; biofilm of reference and clinical strains of staphylococci, 24 h): 14.84 µg/mL | MIC [24]: 8 µg/mL | MBEC [25]: 64 µg/mL | MBIC [25]: 32 µg/mL | MBEC [26]: 64 µg/mL | MBIC [26]: 16 µg/mL | mean MIC (corrected values) [27]: 6.77 µg/mL | mean MIC (initial values) [27]: 7.96 µg/mL | MBIC [28]: 32 µg/mL

ILRWPWWPWRRK-NH2 [Omiganan AcO^−]
IC50 [1]: 73.72 µg/mL | MIC (S. aureus ATCC 6538): 8 µg/mL | MBEC [2]: 64 µg/mL | MBEC [3]: 32 µg/mL | MBIC [3]: 16 µg/mL | MIC [4]: 8 µg/mL | MIC [5]: 0.5 µg/mL | MIC [6]: 8 µg/mL | MBEC [7]: 16 µg/mL | MBIC [7]: 16 µg/mL | MBEC [8]: 128 µg/mL | MBIC [8]: 32 µg/mL | MBEC [9]: 32 µg/mL | MBIC [9]: 16 µg/mL | MIC [10]: 8 µg/mL | MIC [11]: 1 µg/mL | MIC [12]: 16 µg/mL | MBEC [13]: 16 µg/mL | MBEC [14]: 32 µg/mL | MBIC [14]: 8 µg/mL | MIC [15]: 1 µg/mL | MIC [16]: 1 µg/mL | MBEC [17]: 16 µg/mL | MBIC [17]: 1 µg/mL | MIC (S. aureus ATCC 9144): 4 µg/mL | MIC [18]: 8 µg/mL | MBEC [19]: 64 µg/mL | MBIC [19]: 16 µg/mL | MBEC [20]: 16 µg/mL | MBIC [20]: 1 µg/mL | MIC (S. aureus ATCC 25923): 16 µg/mL | MIC (S. aureus ATCC 12598): 8 µg/mL | MBEC [21]: 16 µg/mL | MBIC [21]: 1 µg/mL | MBEC [22]: 16 µg/mL | MBIC [22]: 16 µg/mL | mean MBEC (initial values) ([23]; 24 h): 38.86 µg/mL | mean MBIC (initial values) [23]: 14.54 µg/mL | MIC [24]: 8 µg/mL | MBEC [25]: 64 µg/mL | MBIC [25]: 32 µg/mL | MBEC [26]: 32 µg/mL | MBIC [26]: 16 µg/mL | mean MIC (initial values) [27]: 6.82 µg/mL | MBIC [28]: 32 µg/mL
